Measurements published in patent US20110306639A1, “HYDROCARBYLIDENE NITROHYDROZINECARBOXIMIDAMIDES AND A METHOD FOR MAKING THE SAME, AS WELL AS THEIR USES AS AN INSECTICIDE” (priority 2008, published 2011).
Read-outs that look alike come from different tables or passages of the source.

Row | Compound | mortality(%) myzus persicae (600 μg/mL) (myzus persicae; in vivo) [%] | mortality(%) Helicoverpa armigera (500 μg/mL) (Helicoverpa armigera; 500 μg/mL, 48 hours) [%] | mortality(%) asparagus caterpillar (500 μg/mL) (asparagus caterpillar; in vivo) [%] | mortality(%) myzus persicae (600 μg/mL) (myzus persicae; 600 μg/mL) [%] | mortality(%) asparagus caterpillar (500 μg/mL) (asparagus caterpillar; 500 μg/mL, 48 hours) [%] | mortality(%) Helicoverpa armigera (500 μg/mL) (Helicoverpa armigera; in vivo) [%]
1 | C=CCNC(=N[N+](=O)[O-])NN=CCCC [Compound 27] | 65.1 | 30 | 40 | – | – | –
2 | Cc1ccc(C=NNC(=N[N+](=O)[O-])NCc2ccc(Cl)nc2)cc1 [Compound 107] | – | 10 | – | 3.7 | 20 | –
3 | CCCNC(=N[N+](=O)[O-])NN=Cc1ccc(OCC)c(OC)c1 [Compound 96] | 73.4 | – | 50 | – | – | 20
4 | CC=CC=NNC(=N[N+](=O)[O-])NC [Compound 31] | 42.6 | 60 | 10 | – | – | –
5 | CCCNC(=N[N+](=O)[O-])NN=Cc1ccccc1OC [Compound 73] | 20.2 | 50 | 70 | – | – | –
6 | CCCCCCC=NNC(=N[N+](=O)[O-])NCc1ccccc1 [Compound 49] | 28.6 | 50 | 0 | – | – | –
7 | C=CCNC(=N[N+](=O)[O-])NN=CCCCC [Compound 53] | 81.0 | 40 | 80 | – | – | –
8 | C#CCNC(=N[N+](=O)[O-])NN=CC(C)C [Compound 6] | 37.9 | 100 | 60 | – | – | –
9 | C#CCNC(=N[N+](=O)[O-])NN=CCC [Compound 13] | 5.0 | 50 | 0 | – | – | –
10 | C=CC=NNC(=N[N+](=O)[O-])NCCC [Compound 40] | 8.3 | 30 | 20 | – | – | –
11 | COc1ccccc1C=NNC(=N[N+](=O)[O-])NCc1ccccc1 [Compound 75] | 92.8 | 30 | 90 | – | – | –
12 | C=CCNC(=N[N+](=O)[O-])NN=Cc1ccc(F)cc1 [Compound 101] | 17.7 | – | 30 | – | – | 40
13 | C=CCNC(=N[N+](=O)[O-])NN=CC=CC [Compound 35] | 56.7 | 20 | 60 | – | – | –
14 | CCCCNC(=N[N+](=O)[O-])NN=Cc1ccccc1OC [Compound 74] | 40.4 | 0 | 30 | – | – | –
15 | C=CCNC(=N[N+](=O)[O-])NN=CC(C)C [Compound 5] | 27.8 | 90 | 30 | – | – | –
16 | CCC=NNC(=N[N+](=O)[O-])NCCCC [Compound 11] | 1.5 | 50 | 50 | – | – | –
17 | CC(C)C=NNC(=N[N+](=O)[O-])NCc1ccc(Cl)nc1 [Compound 8] | 87.0 | – | 40 | – | – | 60
18 | CCCC=NNC(=N[N+](=O)[O-])NCc1ccc(Cl)nc1 [Compound 30] | 80.7 | – | 40 | – | – | 40
19 | CCCCNC(=N[N+](=O)[O-])NN=Cc1ccc(OCC)c(OC)c1 [Compound 97] | 35.8 | – | 70 | – | – | 40
20 | C#CCNC(=N[N+](=O)[O-])NN=CC=C(C)CCC=C(C)C [Compound 21] | 12.8 | – | 30 | – | – | 20
21 | CCCC=NNC(=N[N+](=O)[O-])NCCCC [Compound 26] | 65.3 | 20 | 60 | – | – | –
22 | CNC(=N[N+](=O)[O-])NN=CC(C)C [Compound 1, 2-isobutylidene-N-methyl-N′-nitrohydrozinecarboximidamide] | 4.7 | 40 | 40 | – | – | –
23 | CCC=NNC(=N[N+](=O)[O-])NCC [Compound 9] | 54.2 | 60 | 20 | – | – | –
24 | C=CC=NNC(=N[N+](=O)[O-])NCCCC [Compound 41] | 74.7 | 20 | 10 | – | – | –
25 | CCOc1ccc(C=NNC(=N[N+](=O)[O-])NC)cc1OC [Compound 95] | 58.0 | – | 80 | – | – | 40

Row | Compound | mortality(%) myzus persicae (600 μg/mL) (myzus persicae; in vivo) [%] | mortality(%) Helicoverpa armigera (500 μg/mL) (Helicoverpa armigera; 500 μg/mL, 48 hours) [%] | mortality(%) asparagus caterpillar (500 μg/mL) (asparagus caterpillar; in vivo) [%] | mortality(%) myzus persicae (600 μg/mL) (myzus persicae; 600 μg/mL) [%] | mortality(%) asparagus caterpillar (500 μg/mL) (asparagus caterpillar; 500 μg/mL, 48 hours) [%] | mortality(%) Helicoverpa armigera (500 μg/mL) (Helicoverpa armigera; in vivo) [%]
26 | CCNC(=N[N+](=O)[O-])NN=CC(C)C [Compound 2] | 53.6 | 60 | 50 | – | – | –
27 | CCNC(=N[N+](=O)[O-])NN=Cc1ccc(N(C)C)cc1 [Compound 69] | 90.6 | – | 80 | – | – | 30
28 | CC(C)=CCCC(C)=CC=NNC(=N[N+](=O)[O-])NCc1ccc(Cl)nc1 [Compound 23] | 19.8 | – | 40 | – | – | 30
29 | CCCNC(=N[N+](=O)[O-])NN=Cc1ccc(F)cc1 [Compound 100] | 20.3 | – | 90 | – | – | 20
30 | C=CCNC(=N[N+](=O)[O-])NN=Cc1ccc(N(C)C)cc1 [Compound 72] | 23.6 | – | 50 | – | – | 50
31 | CC=CC=NNC(=N[N+](=O)[O-])NCCC [Compound 33] | 19.5 | 70 | 70 | – | – | –
32 | CCCCC=NNC(=N[N+](=O)[O-])NCc1ccccc1 [Compound 55] | 49.2 | 10 | 30 | – | – | –
33 | CCCCC=NNC(=N[N+](=O)[O-])NCCCC [Compound 52] | 81.0 | 20 | 60 | – | – | –
34 | C#CCNC(=N[N+](=O)[O-])NN=CCCCCCC [Compound 48] | 13.0 | 30 | 0 | – | – | –
35 | CCCCC=NNC(=N[N+](=O)[O-])NCCC [Compound 51] | 13.3 | 30 | 10 | – | – | –
36 | C=CCNC(=N[N+](=O)[O-])NN=Cc1ccc(OCC)c(OC)c1 [Compound 99] | 45.8 | – | 30 | – | – | 50
37 | C#CCNC(=N[N+](=O)[O-])NN=Cc1ccccc1Cl [Compound 94] | 31.2 | – | 60 | – | – | 50
38 | CC=CC=NNC(=N[N+](=O)[O-])NCC [Compound 32] | 48.0 | 0 | 0 | – | – | –
39 | CC(C)=CCCC(C)=CC=NNC(=N[N+](=O)[O-])NCc1ccccc1 [Compound 22] | 7.1 | – | 20 | – | – | 20
40 | C#CCNC(=N[N+](=O)[O-])NN=Cc1ccccc1OC [Compound 77] | 4.2 | 30 | 50 | – | – | –
41 | CC=CC=NNC(=N[N+](=O)[O-])NCc1ccc(Cl)nc1 [Compound 38] | 1.2 | – | 0 | – | – | 30
42 | C#CCNC(=N[N+](=O)[O-])NN=Cc1ccc(F)cc1 [Compound 102] | 31.6 | – | 50 | – | – | 50
43 | C#CCNC(=N[N+](=O)[O-])NN=CC=CC [Compound 36] | 35.0 | 30 | 50 | – | – | –
44 | CCCCNC(=N[N+](=O)[O-])NN=CC=C(C)CCC=C(C)C [Compound 19] | 67.5 | – | 60 | – | – | 40
45 | CCCCNC(=N[N+](=O)[O-])NN=CC(C)C [Compound 4] | 31.6 | 10 | 20 | – | – | –
46 | O=[N+]([O-])N=C(NCc1ccccc1)NN=Cc1ccccc1Cl [Compound 92] | 45.8 | – | 70 | – | – | 50
47 | CCCCCCC=NNC(=N[N+](=O)[O-])NCCC [Compound 45] | 16.9 | 20 | 20 | – | – | –
48 | CCCC=NNC(=N[N+](=O)[O-])NCC [Compound 24] | 4.7 | 40 | 0 | – | – | –
49 | C=CCNC(=N[N+](=O)[O-])NN=CC=C(C)CCC=C(C)C [Compound 20] | 5.2 | – | 50 | – | – | 0
